Experimental data reported in ChEMBL document CHEMBL1133964, “Synthesis and biological data of 4-amino-1-(2-chloro-2-phenylethyl)-1H-pyrazolo[3,4-b]pyridine-5-carboxylic acid ethyl esters, a new series of A1-adenosine receptor (A1AR) ligands” (Bioorg Med Chem Lett, 2001).

Assays:
[1] = test system: Adenosine receptor A2a (Bos taurus); test: Percent inhibition of [3H]CGS-21680 binding to A2A adenosine receptor of bovine striatal membrane at 10 uM
[2] = molecular target: T1, Adenosine receptor A1 (Bos taurus) (UniProt P28190); test: Percent inhibition of [3H]CHA binding at Adenosine A1 receptor in bovine cortical membrane at 10 uM; type: cell membranes
T1 sequence (whole entry): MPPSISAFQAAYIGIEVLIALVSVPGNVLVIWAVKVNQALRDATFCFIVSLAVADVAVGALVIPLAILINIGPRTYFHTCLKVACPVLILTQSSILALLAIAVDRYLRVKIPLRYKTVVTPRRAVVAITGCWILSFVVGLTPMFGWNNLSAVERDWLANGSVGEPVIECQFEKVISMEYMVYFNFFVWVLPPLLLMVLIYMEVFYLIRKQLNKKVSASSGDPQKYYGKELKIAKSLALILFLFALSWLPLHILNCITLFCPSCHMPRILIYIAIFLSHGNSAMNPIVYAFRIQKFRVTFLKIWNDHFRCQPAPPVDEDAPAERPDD

Adenosine receptor A1 = molecular target: T2, Adenosine receptor A1 (Bos taurus, UniProt P28190); test: Displacement of [3H]CHA from Adenosine A1 receptor in bovine cortical membrane expressed as Ki; type: cell membranes
T2 sequence (P28190 whole entry): T1 sequence (whole entry)

[3] = molecular target: Adenosine receptor A2a (Bos taurus); test: Displacement of [3H]CGS-21680 binding at A2A adenosine receptor in bovine striatal membrane

Row | inhibition [1] [%] | inhibition [2] [%] | Ki (Adenosine receptor A1) [nM] | Ki [3] [nM] | Compound
1 | 6 | 0 |  |  | CCOC(=O)c1cnc2c(cnn2CC(Cl)c2ccccc2)c1N1CCNCC1 (stereo not drawn)
2 |  |  | 98.2 |  | CCOC(=O)c1cnc2c(cnn2CC(Cl)c2ccccc2)c1N1CCCC1 (stereo not drawn)
3 | 0 |  | 139 |  | CCOC(=O)c1cnc2c(cnn2CC(Cl)c2ccccc2)c1NCc1ccccc1 (stereo not drawn)
4 | 10 |  | 112 |  | CCOC(=O)c1cnc2c(cnn2CC(Cl)c2ccccc2)c1NC1CC1 (stereo not drawn)
5 | 0 |  | 470 |  | CCOC(=O)c1cnc2c(cnn2CC(Cl)c2ccccc2)c1N1CCOCC1 (stereo not drawn)
6 |  | 22 |  | 2140 | CCOC(=O)c1cnc2c(cnn2CC(Cl)c2ccccc2)c1N1CCN(C)CC1 (stereo not drawn)
7 |  |  | 50 |  | CCOC(=O)c1cnc2c(cnn2CC(Cl)c2ccccc2)c1NCCc1ccccc1 (stereo not drawn)
8 | 23 | 41 |  |  | CCOC(=O)c1cnc2c(cnn2CC(Cl)c2ccccc2)c1N1CCCCC1 (stereo not drawn)
9 | 3 |  | 4100 |  | CCCCNc1c(C(=O)OCC)cnc2c1cnn2CC(Cl)c1ccccc1 (stereo not drawn)
10 |  |  | 151 |  | CCOCCNc1c(C(=O)OCC)cnc2c1cnn2CC(Cl)c1ccccc1 (stereo not drawn)
11 |  |  | 4800 |  | CCOC(=O)c1cnc2c(cnn2CC(Cl)c2ccccc2)c1NC(C)(C)C (stereo not drawn)
12 | 22 | 35 |  |  | CCOC(=O)c1cnc2c(cnn2CC(Cl)c2ccccc2)c1N1CCCCCC1 (stereo not drawn)
13 |  |  | 100 |  | CCCNc1c(C(=O)OCC)cnc2c1cnn2CC(Cl)c1ccccc1 (stereo not drawn)
14 | 11 |  | 348 |  | CCOC(=O)c1cnc2c(cnn2CC(Cl)c2ccccc2)c1Nc1ccccc1 (stereo not drawn)
